The numbers were not newly measured in patent publication US20030219799A1, “Cancer-linked gene as target for chemotherapy” (priority 2002, published 2003), which cites them from elsewhere.

The conditions of data set [1]: in vitro.
The next data set concerns cultured cell lines. The note with it: versus cis-platin and doxorubicin.
For data set [2] the following is noted: in vivo.
For data set [3], the system named is subcutaneous COLO 205 human colon tumor xenografts. The note with it: mice, subcutaneous COLO 205 xenografts, doses well below the maximum tolerated dose.
The test system of data set [4] is cultured colon cancer cells.

For the molecule `COc1cc2cc(c1Cl)N(C)C(=O)C[C@H](OC(=O)[C@H](C)N(C)C(=O)CCS)[C@]1(C)O[C@H]1[C@H](C)[C@@H]1C[C@@](O)(NC(=O)O1)[C@H](OC)/C=C/C=C(\C)C2` [DM1], in data set [1], the “cytotoxicity relative to maytansine” value was “up to 10 fold”.
Regarding `Cc1c[nH]c2c1[C@@]13C[C@@H]1CN(C(=O)c1cc4cc(NC(=O)c5cc6ccccc6o5)ccc4[nH]1)C3=CC2=O` [Adozelesin], the “toxicity to cultured cell lines relative to other DNA interacting agents” value in the data set on cultured cell lines was “about 1,000 fold”.
Turning to `COc1cc2cc(c1Cl)N(C)C(=O)C[C@H](OC(=O)[C@H](C)N(C)C(C)=O)[C@]1(C)O[C@H]1[C@H](C)[C@@H]1C[C@@](O)(NC(=O)O1)[C@H](OC)/C=C/C=C(\C)C2` [Maytansine], the “value in human clinical trials” value in data set [2] is listed as “little value”.

B1: immunoconjugate of the maytansinoid cytotoxin DM1 and C242 antibody: DM1 linked to C242, a murine IgG1 with affinity for a mucin-like glycoprotein of human colorectal cancers (conjugate, chains of the INN, looked up)
VH: QVQLVQSGAEVKKPGETVKISCKASDYTFTYYGMNWVKQAPGQGLKWMGWIDTTTGEPTYAQKFQGRIAFSLETSASTAYLQIKSLKSEDTATYFCARRGPYNWYFDVWGQGTTVTVSS
VL: DIVMTQSPLSVPVTPGEPVSISCRSSKSLLHSNGNTYLYWFLQRPGQSPQLLIYRMSNLVSGVPDRFSGSGSGTAFTLRISRVEAEDVGVYYCLQHLEYPFTFGPGTKLELK
modifications: DM1 maytansinoid conjugate
Turning to B1, in data set [3], the “anti-tumor effects in vivo” value is recorded as “anti-tumor effects”. Moreover, the “cytotoxicity against cultured colon cancer cells” value in data set [4] is “highly cytotoxic”.
